Measurements from patent US20150239831A1, “INHIBITORS OF CENTRAL NERVOUS SYSTEM VASOACTIVE INHIBITORY PEPTIDE RECEPTOR 2” (The Trustees Of Columbia University In The City Of New York, priority 2012, published 2015).

Experiments:
Format in all cases: cell-based
Parameters in all cases: expressed in transfected cells; host or cells: HEK293 cells transfected with VIPR2 in pCDNA3.1 (as described)
VIPR2 [1] = target: T1, VIPR2 (Homo sapiens, UniProt P41587); assay: Inhibition of VIP-induced β-arrestin recruitment (% Activity Arrestin)
T1 sequence (P41587 24-438): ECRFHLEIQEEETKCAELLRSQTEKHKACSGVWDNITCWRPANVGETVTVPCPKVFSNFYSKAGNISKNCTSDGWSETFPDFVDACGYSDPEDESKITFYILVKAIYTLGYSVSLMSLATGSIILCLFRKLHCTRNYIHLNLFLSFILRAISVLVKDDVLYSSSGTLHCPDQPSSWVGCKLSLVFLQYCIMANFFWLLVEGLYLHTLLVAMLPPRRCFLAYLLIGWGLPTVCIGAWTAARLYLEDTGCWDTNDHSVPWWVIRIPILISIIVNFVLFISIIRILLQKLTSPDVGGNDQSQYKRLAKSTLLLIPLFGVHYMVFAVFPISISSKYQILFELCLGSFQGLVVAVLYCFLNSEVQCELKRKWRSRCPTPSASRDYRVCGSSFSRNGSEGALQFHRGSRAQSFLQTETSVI
Outline: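 Read-out is β-gal fragment complementation (luminescence) between ProLink-hVIPR2 and EA-β-arrestin2 in transiently transfected HEK293 cells. Cells rested overnight, then exposed to inhibitor 2 h at 37 °C before detection reagent (5 min–1 h, room temperature); values are % activity against VIP-driven recruitment.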

VIPR2 [2] = target: T1, VIPR2; assay: Inhibition of VIP-induced cAMP elevation (% Activity cAMP)
Outline: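 HEK293 cells stably transfected with human VIPR2 were incubated with inhibitor and VIP for 30 min, then cAMP was detected by HTRF after at least 1 h at room temperature. The 665/620 nm ratio ×10,000 was calculated.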

VIPR2 [3] = target: T1, VIPR2; assay: % Activity: inhibition of VIP-induced cAMP elevation and β-arrestin recruitment (Table 2)
Outline: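 Recruitment of β-arrestin measured by β-gal fragment complementation luminescence in HEK293 cells co-expressing VIPR2-ProLink and β-arrestin2-EA after 2 h compound at 37° C. VIP-driven cAMP rise in stable hVIPR2 HEK293 cells measured by HTRF after 30 min with inhibitor and VIP.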

| Compound | inhibition at 0.5 µM (VIPR2 [1]; Batch 2) | inhibition at 1 µM (VIPR2 [1]; Batch 2) | inhibition at 5 µM (VIPR2 [1]; Batch 2) | inhibition at 0.5 µM (VIPR2 [2]; Batch 2) | inhibition at 1 µM (VIPR2 [2]; Batch 2) | inhibition at 5 µM (VIPR2 [2]; Batch 2) | % Activity (VIPR2 [3]) | inhibition at 0.5 µM (VIPR2 [1]; Batch 1) | inhibition at 1 µM (VIPR2 [1]; Batch 1) | inhibition at 5 µM (VIPR2 [1]; Batch 1) | inhibition at 0.5 µM (VIPR2 [2]; Batch 1) | inhibition at 1 µM (VIPR2 [2]; Batch 1) | inhibition at 5 µM (VIPR2 [2]; Batch 1) | inhibition at 0.5 µM (VIPR2 [1]; Batch 3) | inhibition at 1 µM (VIPR2 [1]; Batch 3) | inhibition at 5 µM (VIPR2 [1]; Batch 3) | inhibition at 0.5 µM (VIPR2 [2]; Batch 3) | inhibition at 1 µM (VIPR2 [2]; Batch 3) | inhibition at 5 µM (VIPR2 [2]; Batch 3) |
| --- | --- | --- | --- | --- | --- | --- | --- | --- | --- | --- | --- | --- | --- | --- | --- | --- | --- | --- | --- |
| O=C(Cc1cccc(Cl)c1)NC[C@@H](O)C[C@@H](Cc1ccccc1)C(=O)N[C@H]1c2ccccc2C[C@H]1O [Compound A19] |  |  |  |  |  |  | 21.85% | 11.3% | 20.1% | 17.2% | 14.4% | 16% | 26.5% |  |  |  |  |  |  |
| O=C(NC[C@@H](O)C[C@@H](Cc1ccccc1)C(=O)N[C@H]1c2ccccc2C[C@H]1O)c1ccco1 [Compound A2] |  |  |  |  |  |  | 26.2% | 30.3% | 27.7% | 33.3% | 20.8% | 22.5% | 19.1% |  |  |  |  |  |  |
| C=Cc1ccc(C(=O)NC[C@@H](O)C[C@@H](Cc2ccccc2)C(=O)N[C@H]2c3ccccc3C[C@H]2O)cc1 [Compound A24] |  |  |  |  |  |  | 12.8% | 2.3% | 47.5% | 1.8% | 16.1% | 16.5% | 23.8% |  |  |  |  |  |  |
| Cc1ccc(S(=O)(=O)NC[C@@H](O)C[C@@H](Cc2ccccc2)C(=O)N[C@H]2c3ccccc3C[C@H]2O)c(C)c1 [N] |  |  |  |  |  |  | 27.55% | 2.8% | 20.3% | 31.8% | 14.1% | 10.9% | 23.3% |  |  |  |  |  |  |
| O=C(NCc1ccccc1)c1ccc(S(=O)(=O)NC[C@@H](O)C[C@@H](Cc2ccccc2)C(=O)N[C@H]2c3ccccc3C[C@H]2O)cc1 [Compound X098] |  |  |  |  |  |  | 41.4% |  |  |  |  |  |  | 4.8% | -2% | -7.7% | 25% | 32.3% | 90.6% |
| O=C(NC[C@@H](O)C[C@@H](Cc1ccccc1)C(=O)N[C@H]1c2ccccc2C[C@H]1O)C1CC1 [Compound A1] |  |  |  |  |  |  | 26.55% | -3.8% | 37% | 29.1% | 21% | 21.1% | 24% |  |  |  |  |  |  |
| O=C(CCl)NC[C@@H](O)C[C@@H](Cc1ccccc1)C(=O)N[C@H]1c2ccccc2C[C@H]1O [Compound A7] |  |  |  |  |  |  | 16.55% | 9.9% | 23.7% | 17.5% | 18.4% | 19.2% | 15.6% |  |  |  |  |  |  |
| CC(C)CNc1ccc(S(=O)(=O)NC[C@@H](O)C[C@@H](Cc2ccccc2)C(=O)N[C@H]2c3ccccc3C[C@H]2O)cc1 [Compound X086] |  |  |  |  |  |  | 19.65% |  |  |  |  |  |  | 10.2% | 5.2% | 11.9% | 21.6% | 16.7% | 27.4% |
| O=C(NC[C@@H](O)C[C@@H](Cc1ccccc1)C(=O)N[C@H]1c2ccccc2C[C@H]1O)c1ccncc1 [Compound A18] |  |  |  |  |  |  | 6.1% | -39.7% | 10.9% | -8.8% | 14.2% | 19.2% | 21% |  |  |  |  |  |  |

Next, values leading:

| inhibition at 0.5 µM (VIPR2 [1]; Batch 2) | inhibition at 1 µM (VIPR2 [1]; Batch 2) | inhibition at 5 µM (VIPR2 [1]; Batch 2) | inhibition at 0.5 µM (VIPR2 [2]; Batch 2) | inhibition at 1 µM (VIPR2 [2]; Batch 2) | inhibition at 5 µM (VIPR2 [2]; Batch 2) | % Activity (VIPR2 [3]) | inhibition at 0.5 µM (VIPR2 [1]; Batch 1) | inhibition at 1 µM (VIPR2 [1]; Batch 1) | inhibition at 5 µM (VIPR2 [1]; Batch 1) | inhibition at 0.5 µM (VIPR2 [2]; Batch 1) | inhibition at 1 µM (VIPR2 [2]; Batch 1) | inhibition at 5 µM (VIPR2 [2]; Batch 1) | inhibition at 0.5 µM (VIPR2 [1]; Batch 3) | inhibition at 1 µM (VIPR2 [1]; Batch 3) | inhibition at 5 µM (VIPR2 [1]; Batch 3) | inhibition at 0.5 µM (VIPR2 [2]; Batch 3) | inhibition at 1 µM (VIPR2 [2]; Batch 3) | inhibition at 5 µM (VIPR2 [2]; Batch 3) | Compound |
| --- | --- | --- | --- | --- | --- | --- | --- | --- | --- | --- | --- | --- | --- | --- | --- | --- | --- | --- | --- |
| 9.4% | 7.2% | -0.2% | 5.4% | 7.8% | 7.3% | 3.55% |  |  |  |  |  |  |  |  |  |  |  |  | C#CCNC(=O)[C@H](Cc1ccccc1)C[C@H](O)CNS(=O)(=O)c1ccc([N+](=O)[O-])cc1 [Compound B21A] |
| 3.5% | -9.8% | 7% | 14.6% | 12.6% | 9.7% | 8.35% |  |  |  |  |  |  |  |  |  |  |  |  | NC(=O)[C@@H](Cc1ccccc1)C[C@H](O)CNS(=O)(=O)c1ccc([N+](=O)[O-])cc1 [Compound B12B] |
| 3.3% | 3.4% | 7% | 3.1% | 7.3% | 13.5% | 10.25% |  |  |  |  |  |  |  |  |  |  |  |  | C#CCNC(=O)[C@@H](Cc1ccccc1)C[C@H](O)CNS(=O)(=O)c1ccc([N+](=O)[O-])cc1 [Compound B21B] |
| -6.5% | -16.6% | -23% | 6.7% | 3.6% | 2.1% | −10.45% |  |  |  |  |  |  |  |  |  |  |  |  | NC(=O)[C@H](Cc1ccccc1)C[C@H](O)CNS(=O)(=O)c1ccc([N+](=O)[O-])cc1 [Compound B12A] |
| -8.4% | -17.8% | -4.5% | 2.1% | 4.4% | 6.2% | 0.85% |  |  |  |  |  |  |  |  |  |  |  |  | O=C([C@H](Cc1ccccc1)C[C@H](O)CNS(=O)(=O)c1ccc([N+](=O)[O-])cc1)N1CCC(CO)CC1 [Compound B19] |
|  |  |  |  |  |  | 11.65% |  |  |  |  |  |  | -1.2% | 4.9% | 4.2% | 15.2% | 19.1% | 19.1% | CC(=O)Nc1ccc(S(=O)(=O)NC[C@@H](O)C[C@@H](Cc2ccccc2)C(=O)N[C@H]2c3ccccc3C[C@H]2O)cc1 [Compound X088] |
| -19.2% | -5.4% | -2.4% | 1.7% | 5.6% | 12.9% | 5.25% |  |  |  |  |  |  |  |  |  |  |  |  | O=C(NC1CCCCCC1)[C@H](Cc1ccccc1)C[C@H](O)CNS(=O)(=O)c1ccc([N+](=O)[O-])cc1 [Compound B5A] |
|  |  |  |  |  |  | 15.95% |  |  |  |  |  |  | 3.9% | 0.5% | 0.1% | 15.2% | 19.6% | 31.8% | O=C(NC1CCCC1)c1ccc(S(=O)(=O)NC[C@@H](O)C[C@@H](Cc2ccccc2)C(=O)N[C@H]2c3ccccc3C[C@H]2O)cc1 [Compound X097] |
|  |  |  |  |  |  | 13.1% |  |  |  |  |  |  | 6.4% | -1.8% | 0.2% | 7.4% | 6.4% | 26% | O=C(O)c1ccc(S(=O)(=O)NC[C@@H](O)C[C@@H](Cc2ccccc2)C(=O)N[C@H]2c3ccccc3C[C@H]2O)cc1 [Compound X094] |
|  |  |  |  |  |  | 18.75% | -0.5% | 18.6% | 16.4% | 14% | 22.3% | 21.1% |  |  |  |  |  |  | O=C(NC[C@@H](O)C[C@@H](Cc1ccccc1)C(=O)N[C@H]1c2ccccc2C[C@H]1O)c1ccc([N+](=O)[O-])cc1 [Compound A25] |
|  |  |  |  |  |  | 15.05% |  |  |  |  |  |  | 6.4% | -0.3% | -4.2% | -2.4% | 23% | 34.3% | O=C(Nc1ccc(S(=O)(=O)NC[C@@H](O)C[C@@H](Cc2ccccc2)C(=O)N[C@H]2c3ccccc3C[C@H]2O)cc1)C1CC1 [Compound X093] |
| -6.4% | 4.4% | 6.5% | 6.3% | 7.1% | 4.4% | 5.45% |  |  |  |  |  |  |  |  |  |  |  |  | O=C(NN1CCCCC1)[C@H](Cc1ccccc1)C[C@H](O)CNS(=O)(=O)c1ccc([N+](=O)[O-])cc1 [Compound B6A] |
|  |  |  |  |  |  | 15.6% |  |  |  |  |  |  | 4.1% | 2.6% | 6.7% | -2.9% | 11.3% | 24.5% | CCCNc1ccc(S(=O)(=O)NC[C@@H](O)C[C@@H](Cc2ccccc2)C(=O)N[C@H]2c3ccccc3C[C@H]2O)cc1 [Compound X084] |
| -0.9% | 3.3% | 4.7% | 9.2% | 12.3% | 6% | 5.35% |  |  |  |  |  |  |  |  |  |  |  |  | O=C(NN1CCCCC1)[C@@H](Cc1ccccc1)C[C@H](O)CNS(=O)(=O)c1ccc([N+](=O)[O-])cc1 [Compound B6B] |
